Measurements from ChEMBL document CHEMBL1143321, “Novel imidazole-based histamine H3 antagonists” (Bioorg Med Chem Lett, 2009).
pIC50, pKi: −log10 of the molar value.

Experiments:
[1] = target: T1, Histamine H3 receptor (Homo sapiens, UniProt Q9Y5N1); experiment: Binding affinity to human histamine H3 receptor
[2] = target: T1, Histamine H3 receptor; experiment: Antagonist activity at human histamine H3 receptor; format: functional; settings: read-out: pA2 (converted)
[3] = Metabolic stability in rat liver microsomes assessed as half life; format: ADME, Microsome
[4] = Metabolic stability in human liver microsomes assessed as half life; format: ADME, Microsome
[5] = target: Histamine H3 receptor (Rattus norvegicus, UniProt Q9QYN8); experiment: Antagonist activity at rat histamine H3 receptor; format: functional; settings: read-out: pA2 (converted)
[6] = target: T2, Cytochrome P450 1A2 (Homo sapiens, UniProt P05177); experiment: Inhibition of CYP1A2; format: ADME
T2 sequence (P05177 whole entry): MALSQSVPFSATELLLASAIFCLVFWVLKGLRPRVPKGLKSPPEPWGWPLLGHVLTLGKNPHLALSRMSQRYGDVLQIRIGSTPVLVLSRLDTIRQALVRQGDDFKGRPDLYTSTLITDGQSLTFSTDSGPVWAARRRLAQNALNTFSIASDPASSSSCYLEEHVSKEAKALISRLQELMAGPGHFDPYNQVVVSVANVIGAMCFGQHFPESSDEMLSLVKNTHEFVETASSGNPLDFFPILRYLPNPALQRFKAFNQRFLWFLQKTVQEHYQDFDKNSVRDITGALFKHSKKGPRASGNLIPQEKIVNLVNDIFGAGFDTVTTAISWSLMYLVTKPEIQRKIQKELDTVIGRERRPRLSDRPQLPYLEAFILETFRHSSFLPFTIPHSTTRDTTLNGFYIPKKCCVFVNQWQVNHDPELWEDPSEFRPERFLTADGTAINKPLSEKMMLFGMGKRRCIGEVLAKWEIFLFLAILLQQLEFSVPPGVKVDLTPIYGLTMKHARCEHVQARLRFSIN

[7] = target: Cytochrome P450 2C9 (Homo sapiens, UniProt P11712); experiment: Inhibition of CYP2C9; format: ADME
[8] = target: Cytochrome P450 2C19 (Homo sapiens, UniProt P33261); experiment: Inhibition of CYP2C19; format: ADME
[9] = target: Cytochrome P450 2D6 (Homo sapiens, UniProt P10635); experiment: Inhibition of CYP2D6; format: ADME
[10] = target: Cytochrome P450 3A4 (Homo sapiens, UniProt P08684); experiment: Inhibition of CYP3A4; format: ADME
[11] = Binding affinity to sigma receptor at 10 uM
[12] = Drug level in rat brain at 10 mg/kg, ip after 60 mins; format: ADME, organism-based; design: dose 10 mg/kg, route intraperitoneal; settings: read-out: Drug uptake
[13] = Plasma concentration in rat 10 mg/kg, ip after 60 mins; format: ADME, organism-based; design: dose 10 mg/kg, route intraperitoneal
[14] = Half life in rat at 10 mg/kg, po; format: ADME, organism-based; design: dose 10 mg/kg, route oral; settings: in vivo
[15] = Oral bioavailability in rat at 10 mg/kg; format: ADME, organism-based; settings: in vivo
[16] = Clearance in rat at 10 mg/kg, iv; format: ADME, organism-based; design: dose 10 mg/kg, route intravenous; settings: in vivo
[17] = Volume of distribution in rat at 10 mg/kg, iv; format: ADME, organism-based; design: dose 10 mg/kg, route intravenous; settings: in vivo
[18] = Drug level in rat at 10 mg/kg, ip after 48 hrs; format: ADME, organism-based; design: dose 10 mg/kg, route intraperitoneal; settings: in vivo, read-out: Drug uptake

T1 sequence (Q9Y5N1 whole entry): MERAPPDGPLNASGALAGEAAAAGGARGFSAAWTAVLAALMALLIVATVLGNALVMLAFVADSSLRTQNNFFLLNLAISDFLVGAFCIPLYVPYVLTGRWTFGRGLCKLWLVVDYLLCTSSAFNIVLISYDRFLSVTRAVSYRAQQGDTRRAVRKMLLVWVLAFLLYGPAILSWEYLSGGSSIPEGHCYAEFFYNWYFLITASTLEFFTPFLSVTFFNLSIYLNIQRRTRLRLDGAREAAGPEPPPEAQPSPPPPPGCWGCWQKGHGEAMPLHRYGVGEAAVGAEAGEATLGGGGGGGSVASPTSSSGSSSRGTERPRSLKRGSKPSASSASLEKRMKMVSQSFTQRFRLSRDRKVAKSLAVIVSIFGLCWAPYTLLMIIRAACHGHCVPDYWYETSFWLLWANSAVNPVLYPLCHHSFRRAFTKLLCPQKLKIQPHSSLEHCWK
Chain of Cytochrome P450 2D6 (P10635 whole entry): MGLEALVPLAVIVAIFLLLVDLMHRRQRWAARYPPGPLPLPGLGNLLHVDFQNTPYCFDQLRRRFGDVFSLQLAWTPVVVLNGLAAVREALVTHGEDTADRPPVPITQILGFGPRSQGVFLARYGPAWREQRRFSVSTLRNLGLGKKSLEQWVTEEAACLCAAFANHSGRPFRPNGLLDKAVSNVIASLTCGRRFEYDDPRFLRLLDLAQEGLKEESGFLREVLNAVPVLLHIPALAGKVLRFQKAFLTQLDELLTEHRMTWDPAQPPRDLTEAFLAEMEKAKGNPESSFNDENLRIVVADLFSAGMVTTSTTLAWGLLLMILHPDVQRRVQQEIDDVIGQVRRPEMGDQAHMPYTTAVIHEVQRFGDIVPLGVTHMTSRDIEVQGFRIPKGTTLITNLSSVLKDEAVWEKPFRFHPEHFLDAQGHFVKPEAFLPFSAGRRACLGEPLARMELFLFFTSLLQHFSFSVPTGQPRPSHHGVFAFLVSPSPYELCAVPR
Chain of Cytochrome P450 2C19 (P33261 whole entry): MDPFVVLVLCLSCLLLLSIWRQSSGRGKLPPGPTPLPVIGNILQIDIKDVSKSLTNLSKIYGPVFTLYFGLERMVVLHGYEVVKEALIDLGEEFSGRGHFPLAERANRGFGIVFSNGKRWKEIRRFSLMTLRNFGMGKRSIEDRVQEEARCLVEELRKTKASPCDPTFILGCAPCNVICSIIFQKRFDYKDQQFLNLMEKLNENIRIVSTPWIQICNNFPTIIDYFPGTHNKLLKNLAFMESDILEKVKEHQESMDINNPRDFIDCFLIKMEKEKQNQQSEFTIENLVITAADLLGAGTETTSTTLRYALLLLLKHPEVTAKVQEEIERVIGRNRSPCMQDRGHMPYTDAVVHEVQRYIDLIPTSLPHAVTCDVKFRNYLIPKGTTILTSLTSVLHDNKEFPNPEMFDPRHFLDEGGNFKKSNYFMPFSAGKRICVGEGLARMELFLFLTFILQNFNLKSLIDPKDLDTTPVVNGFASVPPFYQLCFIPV
Chain of Histamine H3 receptor (Rattus norvegicus, UniProt Q9QYN8) (Q9QYN8 whole entry): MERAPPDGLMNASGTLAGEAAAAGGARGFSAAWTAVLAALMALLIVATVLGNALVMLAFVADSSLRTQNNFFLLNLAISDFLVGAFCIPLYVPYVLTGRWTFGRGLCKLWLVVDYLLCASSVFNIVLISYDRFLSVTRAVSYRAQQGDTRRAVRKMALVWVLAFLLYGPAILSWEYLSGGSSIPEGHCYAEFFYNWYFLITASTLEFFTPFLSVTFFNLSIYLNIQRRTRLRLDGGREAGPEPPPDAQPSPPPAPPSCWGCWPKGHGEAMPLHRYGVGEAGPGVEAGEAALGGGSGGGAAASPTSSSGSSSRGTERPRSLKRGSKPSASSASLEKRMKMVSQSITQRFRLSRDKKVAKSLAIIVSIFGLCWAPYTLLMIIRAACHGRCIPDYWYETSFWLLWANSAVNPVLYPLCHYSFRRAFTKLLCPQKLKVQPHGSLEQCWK
Chain of Cytochrome P450 3A4 (P08684 whole entry): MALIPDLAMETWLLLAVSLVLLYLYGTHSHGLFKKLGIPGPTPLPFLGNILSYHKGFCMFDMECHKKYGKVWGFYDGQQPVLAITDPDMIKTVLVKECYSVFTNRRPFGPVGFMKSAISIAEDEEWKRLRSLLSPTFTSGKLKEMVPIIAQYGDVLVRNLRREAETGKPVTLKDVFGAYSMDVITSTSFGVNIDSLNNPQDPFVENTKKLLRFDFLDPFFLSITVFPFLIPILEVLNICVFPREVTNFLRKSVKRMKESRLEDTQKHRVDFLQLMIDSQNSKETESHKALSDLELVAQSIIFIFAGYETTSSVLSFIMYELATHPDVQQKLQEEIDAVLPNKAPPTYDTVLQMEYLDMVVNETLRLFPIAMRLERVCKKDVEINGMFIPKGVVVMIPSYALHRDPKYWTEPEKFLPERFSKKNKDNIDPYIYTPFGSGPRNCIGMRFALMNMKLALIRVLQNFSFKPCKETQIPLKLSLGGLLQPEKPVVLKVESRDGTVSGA
Chain of Cytochrome P450 2C9 (P11712 whole entry): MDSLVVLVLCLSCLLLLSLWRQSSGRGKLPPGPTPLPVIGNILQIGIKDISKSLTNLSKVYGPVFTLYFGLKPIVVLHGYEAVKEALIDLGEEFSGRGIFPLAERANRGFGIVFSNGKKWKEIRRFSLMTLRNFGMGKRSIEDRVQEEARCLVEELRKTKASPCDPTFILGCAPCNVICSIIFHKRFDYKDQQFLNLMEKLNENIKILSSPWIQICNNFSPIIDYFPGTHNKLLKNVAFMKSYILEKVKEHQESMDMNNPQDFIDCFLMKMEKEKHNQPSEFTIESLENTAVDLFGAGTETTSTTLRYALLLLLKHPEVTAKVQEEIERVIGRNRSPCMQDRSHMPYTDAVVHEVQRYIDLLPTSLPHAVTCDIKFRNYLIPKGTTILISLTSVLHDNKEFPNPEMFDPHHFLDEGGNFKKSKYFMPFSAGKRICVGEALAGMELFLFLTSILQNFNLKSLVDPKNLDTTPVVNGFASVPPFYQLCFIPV

Compound | pKi [1] | Kb [2] | other results
Cn1c(C(=O)c2ccc(Cl)cc2)cnc1SCCCCN1CCCCC1 | 7.30 |  | 
CN(C)CCSc1ncc(Cc2ccc(Cl)cc2)n1C | 7.15 | 50.1 nM | 
c1cc(Sc2ccc([C@H]3CC[C@H]4CCCCN43)cc2)ccn1 | 7.92 |  | 
CN(C)CCCSc1ncc(/C(=N\O)c2ccc(Cl)cc2)n1C | 8.70 | 3.98 nM | 
CC(C)N1CCC(COc2ncc(C(=O)c3cc(Cl)cc(Cl)c3)n2C)CC1 |  | 1 nM | 
CN(C)CCCSc1ncc(C(O)c2ccc(Cl)cc2)n1C (stereo not given) | 7.74 | 3.98 nM | 
CC(C)N1CCC(COc2ncc(C(=O)c3ccccc3)n2C)CC1 | 9.00 | 0.316 nM | 
CC(C)N1CCC(CCOc2ncc(C(=O)c3ccc(Cl)cc3)n2C)CC1 | 7.15 | 79.4 nM | 
Cn1c(C(=O)c2ccc(Cl)cc2)cnc1NCCCN1CCCCC1 | 7.30 | 39.8 nM | half-life [3]: 0.0667 h; half-life [4]: > 3 h
CN(C)CCCSc1ncc(C(=O)c2ccc(Cl)cc2)n1C | 8.30 | 2 nM | 
CC(C)N1CCC(COc2ncc(C(=O)c3ccc(F)cc3)n2C)CC1 | 8.52 | 0.316 nM | 
CC(C)N1CCC(Sc2ncc(C(=O)c3ccc(Cl)cc3)n2C)CC1 | 8.70 | 0.501 nM | 
CC(C)N1CCC(COc2ncc(C(=O)c3ccc([N+](=O)[O-])cc3)n2C)CC1 | 8.40 | 1 nM | 
CC(C)N1CCC(COc2ncc(C(=O)c3ccc(Cl)cc3)n2C)CC1 | 8.52 | 0.501 nM | Kb [5]: 10 nM; pIC50 [6]: < 5.00; pIC50 [7]: < 5.00; pIC50 [8]: < 5.00; pIC50 [9]: < 5.00; pIC50 [10]: < 5.00; Activity [11]: 77%; concentration at 1 h [12]: 17 µM; concentration at 1 h [13]: 2.6 µM; half-life [14]: 9 h; bioavailability [15]: 10%; clearance [16]: 9.3 mL/min/kg; Vd [17]: 5.2 L/kg; concentration at 48 h [18]: 3.8 µM
Cn1c(C(=O)c2ccc(Cl)cc2)cnc1OCCCN1CCCCC1 | 7.85 | 12.6 nM | half-life [3]: 0.917 h; half-life [4]: > 3 h
CC(C)N1CCC(COc2ncc(C(=O)c3cccc(Cl)c3)n2C)CC1 | 8.30 | 0.2 nM | 
CC(C)c1ccc(C(=O)c2cnc(OCC3CCN(C(C)C)CC3)n2C)cc1 | 8.05 | 1.26 nM | 
CN(C)CCCSc1ncc(Cc2ccc(Cl)cc2)n1C | 7.70 | 6.31 nM | 
CCCCN(CCCC)CCCOc1ccc(-c2cn3cccc(C)c3n2)cc1 | 8.40 |  | 
CC(C)N1CCC(COc2ncc(C(=O)c3ccc(C(F)(F)F)cc3)n2C)CC1 | 8.40 | 0.501 nM | 
CC(C)CCCSc1ncc(C(=O)c2ccc(Cl)cc2)n1C | < 5.30 | 10000 nM | 
CC(C)N1CCC(COc2ncc(C(=O)c3ccccc3Cl)n2C)CC1 | 9.00 | 0.00794 nM | 
CC(C)N1CCC(Oc2ncc(C(=O)c3ccc(Cl)cc3)n2C)CC1 | 8.00 | 6.31 nM | 
Cn1c(C(=O)c2ccc(Cl)cc2)cnc1CCCCN1CCCCC1 | 7.62 | 10 nM | half-life [3]: 0.0667 h; half-life [4]: 2.98 h
Cn1c(C(=O)c2ccc(Cl)cc2)cnc1SCCCN1CCCCC1 | 8.22 | 20 nM | half-life [3]: 0.117 h; half-life [4]: 2.48 h
CC(C)N1CCC(COc2ncc(C(=O)c3ccc(Br)cc3)n2C)CC1 | 8.52 | 0.794 nM | 
